Assay results: patent publication US4005220A, “Hemostatic compositions comprising salts of substituted hydroquinone sulfonic acid” (Laboratorios del Dr. Esteve, S.A., priority 1973, dated 1977)
“Also recorded” adds a separate entry of the source.

Experiments:
mice = assay: Acute toxicity in mice, LD50 (method of Reed and Muench); assay type: in vivo; details: mice (summary table)
Description: (§1) 1. Acute toxicity in mice
(§2) Albino mice of 18 to 25 g. The LD50 was determined in accordance with the method of Reed and Muench.
(§3) The acute toxicity in mice was determined in accordance with the method of REED and MUENCH, in a modified form (Reed L. J. and Muench H., Am. J. Hyg., 27, 493, 1938). The effect on the average bleeding time was determined by the Roskam technique modified by Laporte (Laporte J., Chemotherapia, 3, 62, 1961).

[1] = Partition coefficient butanol/water
capillary permeability = assay: Protective effect on the capillaries: capillary permeability, BEACH-STEINITZ method in a modified form; assay type: in vivo; details: intraperitoneally, mice; in words
Excerpt: 4. Protective effect on the capillaries

[2] = system: average bleeding time (A.B.T.); assay: Activity-time relationship of the decrease in the A.B.T.; assay type: in vivo, rabbits; details: 5 micromols/kg
Excerpt: 3. Activity-time relationship

[3] = system: average bleeding time (A.B.T.); assay: Effect on the average bleeding time (A.B.T.), Roskam technique modified by Laporte; assay type: in vivo; details: one hour after administration, rabbits
Description: 2. Effect on the average bleeding time
as §3

[4] = Acute toxicity in mice, LD50 (method of Reed and Muench); assay type: in vivo; details: mouse, in vivo, po
Description: as §1, §2, §3

Calcium (tertiary butyl)-p-dihydroxybenzenesulphonate
LD50 (mice; p.o.): 2,337 mg/kg | Partition coefficient butanol/water [1]: 1.36

lithium (tertiary butyl)-p-dihydroxybenzenesulphonate
LD50 (mice; i.v.): 1,000 mg/kg | Partition coefficient butanol/water [1]: 1.28

Diethylamine (tertiary butyl)-p-dihydroxybenzenesulphonate
capillary permeability (capillary permeability): marked decrease in the capillary permeability | % decrease in the A.B.T. ([2]; 1 hour after intravenous administration): 42% | % decrease in the A.B.T. ([2]; 2 hours after intravenous administration): 43.5% | % decrease in the A.B.T. ([2]; 4 hours after intravenous administration): 41.0% | % decrease in the A.B.T. ([2]; 8 hours after intravenous administration): 34.8% | % decrease in the A.B.T. ([2]; 16 hours after intravenous administration): 33.0% | % decrease in the A.B.T. ([2]; 24 hours after intravenous administration): 22.5% | % decrease in the A.B.T. ([2]; 48 hours after intravenous administration): 14.0% | duration of effect ([2]; in words): lasts for a long time; also recorded: lasts for a markedly longer time than the products already described hitherto | Decrease in the A.B.T. in % ([3]; 0.625 micromols/kg): 7% | Decrease in the A.B.T. in % ([3]; 1.25 micromols/kg): 25% | Decrease in the A.B.T. in % ([3]; 2.5 micromols/kg): 34% | Decrease in the A.B.T. in % ([3]; 5.0 micromols/kg): 42% | Decrease in the A.B.T. in % ([3]; 7.05 (sic) micromols/kg): 49% | Decrease in the A.B.T. in % ([3]; 10.0 micromols/kg): 55% | Partition coefficient butanol/water [1]: 2.38

CC(C)(C)c1cc(O)c(S(=O)(=O)O)cc1O [cyclohexylamine (tertiary butyl)-p-dihydroxybenzenesulphonate]
LD50 [4]: 1000 mg/kg

Ammonium (tertiary butyl)-p-dihydroxybenzenesulphonate
LD50 (mice; i.v.): 600 mg/kg | Partition coefficient butanol/water [1]: 0.42

Sodium methyl-p-dihydroxybenzenesulphonate
LD50 (mice; p.o.): > 1,000 mg/kg | Partition coefficient butanol/water [1]: 0.87
